Measurements published in the supplement of paper PMC12613149.

Legend:
[1] = reversed-phase LC retention time (C18, 15 min MeOH gradient); higher = more hydrophobic / later elution
[2] = collision cross section (TIMS, N2 drift gas) of the primary ion; higher = larger gas-phase ion size
[3] = ionization mode: ESI+, ion species: [M+H]+
[4] = ionization mode: ESI-, ion species: [M-H]-
[5] = ionization mode: ESI+, ion species: [M]+

SMILES	reversed-phase LC retention time [1, 3] [min]	reversed-phase LC retention time [1, 4] [min]	collision cross section [2, 3] [Å²]	collision cross section [2, 4] [Å²]	reversed-phase LC retention time [1, 5] [min]	collision cross section [2, 5] [Å²]
CN(C)S(=O)(=O)c1ccc(N)cc1 [4-Amino-N,N-dimethylbenzenesulfonamide]	7.89	7.97	138.47	137.21	–	–
CCCc1nc(C)c2c(=O)nc(-c3cc(S(=O)(=O)N4CCN(CC)CC4)ccc3OCC)[nH]n12 [Vardenafil]	12	14.9	227.75	219.66	–	–
CCNc1ccc2c(C)cc(=O)oc2c1 [7-(Ethylamino)-4-methylcoumarin]	12.2	–	142.36	–	–	–
O=[PH]1Oc2ccccc2-c2ccccc21 (stereo unspecified) [3,4,5,6-Dibenzo-1,2-oxaphosphane-2-oxide]	–	8.76	–	144.27	–	–
CCCCC(CC)COC(=O)c1ccc(Nc2nc(Nc3ccc(C(=O)OCC(CC)CCCC)cc3)nc(Nc3ccc(C(=O)OCC(CC)CCCC)cc3)n2)cc1 (stereo unspecified)	19.5	–	282.62	–	–	–
CCCCCCCC/C=C\CCCCCCCC(N)=O [Oleic acid amide]	18.5	–	177.48	–	–	–
CC(C)NCC(O)COc1ccc(CC(=O)O)cc1 (stereo unspecified) [Metoprolol acid]	7.62	–	166.24	–	–	–
O=C(O)C(F)(F)C(F)(F)C(F)(F)C(F)(F)C(F)(F)C(F)(F)C(F)(F)C(F)(F)F [Perfluorononanoic acid]	–	15.4	–	164.37	–	–
CCC(=O)Nc1ccc(Cl)c(Cl)c1 [Propanil]	13.8	14.1	146.71	141.22	–	–
CCN(CC)C(=O)c1cccc(C(=O)O)c1 [DEET carboxylic acid]	10.8	8.24	151.03	157.09	–	–
Cc1cc(=O)oc2cc(N)ccc12 [7-Amino-4-methylcoumarin]	9.22	–	131.77	–	–	–
CCCCCCCCCCCC[N+](C)(C)Cc1ccccc1 [Benzyldimethyldodecylammonium]	–	–	–	–	16	196.05
Oc1cc(Cl)c(Cl)c(Cl)c1 [3,4,5-Trichlorophenol]	–	14.7	–	126.86	–	–
CCc1cccc(C)c1N(C(=O)CS(=O)(=O)O)[C@@H](C)C(=O)O	–	8.5	–	167.47	–	–
CCCCCCCCCCCCCC[N+](C)(C)[O-] [N,N-Dimethyltetradecylamine-N-oxide]	16.8	–	184.89	–	–	–
C#CCOc1ccc(CCNC(=O)C(OCC#C)c2ccc(Cl)cc2)cc1OC (stereo unspecified) [Mandipropamid]	14.2	14.6	194.91	195.62	–	–

SMILES	reversed-phase LC retention time [1, 3] [min]	reversed-phase LC retention time [1, 4] [min]	collision cross section [2, 3] [Å²]	collision cross section [2, 4] [Å²]	reversed-phase LC retention time [1, 5] [min]	collision cross section [2, 5] [Å²]
O=S(=O)(O)c1ccccc1 [Benzenesulfonic acid]	–	2.42	–	125.05	–	–
CCCCNc1ccc(C(=O)OCCN(C)C)cc1 [Tetracain]	11.2	–	173.87	–	–	–
COc1ccc2c3c1O[C@H]1C[C@@H](O)C=C[C@@]31CCN(C)C2 [Galantamine]	5.92	–	169.25	–	–	–
CC(C)(C)Nc1nc(N)nc(O)n1 [2-Hydroxydesethylterbuthylazine]	6.43	8.55	142.3	140.22	–	–
Clc1ccc(COC(Cn2ccnc2)c2ccc(Cl)cc2Cl)c(Cl)c1 (stereo unspecified) [Miconazole]	15.6	–	191.81	–	–	–
CCNc1nc(N)nc(Cl)n1 [Atrazine desisopropyl]	8.1	–	132.48	–	–	–
CCOP(=O)(OCC)OCC [Triethylphosphate]	10.7	–	131.26	–	–	–
CC(=O)OCC(=O)[C@@]1(O)CC[C@H]2[C@@H]3CCC4=CC(=O)CC[C@]4(C)[C@H]3[C@@H](O)C[C@@]21C [Hydrocortisonacetate]	–	13.7	–	198.1	–	–
Oc1ccc(Cl)cc1Cc1cc(Cl)ccc1O [Dichlorophen]	–	15.3	–	155.04	–	–
Cc1nnc(-c2ccccc2)c(=O)n1N [Metamitron]	8.87	–	143.85	–	–	–
C=C(C)C(=O)NCCCN(C)C [N-(3-Dimethylamino)propyl)methacrylamide]	3.22	–	136.2	–	–	–
NC(=O)Nc1ccc(Cl)c(Cl)c1 [3,4-Dichlorophenylurea]	12.2	12.4	146.21	134.15	–	–
CN(C)CCC(c1ccc(Cl)cc1)c1ccccn1 (stereo unspecified) [Chlorpheniramine]	10.8	–	164.13	–	–	–
CCN(CCCCOC(=O)c1ccc(OC)c(OC)c1)C(C)Cc1ccc(OC)cc1 (stereo unspecified) [Mebeverine]	11.9	–	202.99	–	–	–
CCN(CCO)c1ccc(N=Nc2sc3cc(OC)ccc3[n+]2C)cc1 [Basic Blue 41]	–	–	–	–	12.1	195.62
